Assay results reported in patent US20160120950A1, “Pharmaceutical Formulations Comprising Incretin Mimetic Peptide and Aprotic Polar Solvent” (Amylin Pharmaceuticals, LLC, priority 2008, published 2016).

Experiments:
[1] = Stability of exendin-4 in DMSO formulations, text summary of SCX- and RP-HPLC purity (Example 1, FIGS. 1 and 2); type: physicochemical
Description: (§1) The stability of exendin-4 in DMSO and DMSO with 0.5% water added may be evaluated as follows. The evaluation may be based on the stability of exendin-4 samples stored at 5, 25, and 40° C. for up to 6 months. Further, the stability of exendin-4 in DMSO, as compared to aqueous buffers at a pH of 4.5 may be evaluated.
(§2) Three HPLC methods may be used to analyze the samples: size exclusion HPLC (SEC-HPLC) to determine potency (mg/ml) and two methods to evaluate purity (%), a strong cation exchange (SCX) method and a reversed-phase (RP) method. The methods may be adapted as necessary to achieve appropriate sample analysis. Additionally, the water content of the samples may be evaluated using a suitable Karl Fischer analytical procedure.
More particularly, 25 mg/mL samples of exendin-4 in neat DMSO and DMSO/0.5% water are prepared in N2 atmosphere and held at 5, 25, and 40° C. for 6 months (abbreviated as “mos.”).
Exendin-4 may be formulated in DMSO and DMSO spiked with 0.5% water. […] Exendin-4 purity is reduced about 28% from initial values after 6 months at 40° C. At 25° C., the purity is decreased about 3 to 4% over the same time period. (See FIGS. 1 and 2). However, at 5° C. the purity remains within 0.4 to 0.6% of initial purity values. […] By comparison to aqueous product stability (FIGS. 3 and 4), it is apparent that exendin-4 stability is improved in the aprotic, polar solvent DMSO.

cloned GLP-1 receptor = details: cells transfected with the cloned GLP-1 receptor; cited from earlier work
[2] = Exendin-4 stability in aprotic, polar solvent systems, SCX-Purity (Example 2); type: physicochemical; details: 10% w/w water (0.67 mole fraction DMSO)
Description: The stability of exendin-4 in other aprotic, polar solvents and in DMSO-based co-solvent systems may also be evaluated. The evaluation may be based on the stability of exendin-4 samples stored at 5, 25, and 37° C. for up to 6 months. In addition to dimethyl sulfoxide (DMSO), solvents for evaluation include water, dimethyl acetamide (DMA), dimethyl formamide (DMF), N-methylpyrrolidone (NMP), Propylene carbonate, and ethyl acetate.
as §2, with “The methods may be adapted as necessary to achieve appropriate sample analysis.” left out
Nonaqueous Solvents: The stability of exendin-4 in aprotic, polar solvents with freezing points lower than 0° C. may be evaluated. […]
Co-solvent System with Water: Water at approximately 8% w/w depresses the freezing point of DMSO to just below 0° C. To provide additional protection against freezing, a 10% w/w water solution may be evaluated. […]
Co-solvent Systems with Aprotic, Polar Solvents: Other solvents can also be used to depress the freezing point of DMSO. […] Appropriate amounts of the non-aqueous solvent may first be determined. Next the solubility of exendin-4 may be evaluated by visual inspection in the co-solvent mixture. […]

[3] = Stability of exendin-4 in DMSO, DMSO/0.5% water and aqueous buffer pH 4.5, SCX-HPLC purity (Example 1); type: physicochemical; details: FIGS. 3 and 4, 25° C. and 40° C.
Description: as §1, §2
For a six-month delivery period, approximately 3600 μg of exendin-4 may be desirable based on a 20 μg/day dose. Assuming a representative delivery reservoir of approximately 150 μL, a concentration of about 25 mg/mL may be desirable. Further, proteins and peptides are commonly lyophilized and often include some residual moisture. As such, the effect of water on peptide stability may be investigated, and samples may be prepared in neat DMSO and in DMSO with 0.5% water added.
This concentration of water will depress the 18.6° C. freezing point of DMSO to only about 17.5° C. […]

[4] = Stability of exendin-4 in DMSO and DMSO/0.5% water, SEC-HPLC potency (Example 1); type: physicochemical; details: in DMSO and DMSO with 0.5% water, up to 6 months at 5, 25, 40° C.
Description: as §1, §2
For example, SEC-HPLC can be used to measure the potency of an exendin-4 solution by external standard assay, based on total peptide content of the exendin-containing solution at 214 nm, as compared to qualified reference standard solutions. The identity, potency and label strength of exendin-4 can be established by comparison of the retention times of the exendin-4 peaks in the sample and reference standard solutions.
For a six-month delivery period, approximately 3600 μg of exendin-4 may be desirable based on a 20 μg/day dose. Assuming a representative delivery reservoir of approximately 150 μL, a concentration of about 25 mg/mL may be desirable. […]

Substance	difference due to the presence of 0.5% water ([1]; DMSO vs DMSO spiked with 0.5% water)	purity reduced from initial values ([1]; in DMSO and DMSO with 0.5% water, 6 months at 40° C.)	activity at the cloned GLP-1 receptor (cAMP) (cloned GLP-1 receptor)	stability of exendin-4 in DMSO solvent solution containing 10% w/w water [2]	stability in DMSO by comparison to aqueous product stability [3]	changes in potency [4]
Exendin-4	no substantial difference	about 28%	agonist	enhanced	improved	Essentially no changes
exendin[9-39]	–	–	antagonist	–	–	–
